This passage reports T/C results from PubChem BioAssay AID248 (DTP/NCI, 2004).

“And” between values parts separate entries of the source, which are not always exact repeats. Identical values can stand only once. Inconclusive results and toxic doses are left out.

For the experiment, the system named is L1210 leukemia ip in BDF1 mice, survival T/C. Description: NCI In Vivo Anticancer Drug Screen. Data for tumor model L1210 Leukemia (intraperitoneal) in B6D2F1 (BDF1) mice. The note with it: endpoint: mean survival time, higher = longer survival. In outline: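 In this screen, tumor-bearing mice given compound are compared to those given vehicle, and their survival values are reported as a treated-to-control quotient.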

Where [1] appears, read: dose: 100.0 mg/kg/injection, schedule: Q01DX001 (ip), vehicle: saline with Tween-80.
[2] abbreviates: dose: 100.0 mg/kg/injection, schedule: Q04DX002 (ip), vehicle: saline with Tween-80.
The mark [3] stands for this setting: dose: 200.0 mg/kg/injection, schedule: Q04DX002 (ip), vehicle: saline with Tween-80.
The mark [4] stands for this setting: dose: 25.0 mg/kg/injection, schedule: Q01DX009 (ip), vehicle: Klucel (hydroxypropylcellulose) (HPC).
[5] abbreviates: dose: 50.0 mg/kg/injection, schedule: Q01DX009 (ip), vehicle: Klucel (hydroxypropylcellulose) (HPC).

As to `NS(=O)(=O)c1ccc(NC2OCC(O)C(O)C2O)cc1` (stereo unspecified), the T/C (dose: 100.0 mg/kg/injection, schedule: Q04DX003 (ip), vehicle: saline with Tween-80) was 98 % of control; the T/C (dose: 200.0 mg/kg/injection, schedule: Q04DX003 (ip), vehicle: saline with Tween-80) was 100 % of control; the T/C (dose: 400.0 mg/kg/injection, schedule: Q04DX003 (ip), vehicle: saline with Tween-80) is 102 % of control.
For the compound `Cc1nc(N)[nH]c(=O)c1CCCNCc1ccccn1`, the T/C reads like this: (dose: 25.0 mg/kg/injection, schedule: Q01DX001 (ip), vehicle: saline with Tween-80) 101 % of control; (dose: 50.0 mg/kg/injection, schedule: Q01DX001 (ip), vehicle: saline with Tween-80) 98 % of control; under setting [1], 93 % of control.
With `CC12CCC(=O)C=C1CCC1C2CCC2(C)C(OC(=O)c3ccc(N)cc3)CCC12` (stereo unspecified), the T/C runs as follows: under setting [2], 94 % of control; under setting [3], 91 % of control; (dose: 400.0 mg/kg/injection, schedule: Q04DX002 (ip), vehicle: saline with Tween-80) 94 % of control.
As to `Nc1nc(N)nc(CBr)n1`, the T/C is 103 % of control (dose: 12.5 mg/kg/injection, schedule: Q01DX001 (ip), vehicle: Klucel (hydroxypropylcellulose) (HPC)) and 115 % of control (dose: 50.0 mg/kg/injection, schedule: Q01DX001 (ip), vehicle: Klucel (hydroxypropylcellulose) (HPC)).
`CCCCc1cn(C(=O)CCCl)nn1`: the T/C reads like this: under setting [2], 100 % of control; under setting [3], 100 % of control.
As for `CN(Cc1cnc2nc(N)cc(N)c2n1)c1ccc(C(=O)NC(CCC(=O)O)C(=O)O)cc1` (stereo unspecified), the T/C was 102 % of control (dose: 0.5 mg/kg/injection, schedule: Q01DX009 (ip), vehicle: other); 100 % of control (dose: 1.0 mg/kg/injection, schedule: Q01DX009 (ip), vehicle: other); 112 % of control (dose: 2.0 mg/kg/injection, schedule: Q01DX009 (ip), vehicle: other); 105 % of control (dose: 4.0 mg/kg/injection, schedule: Q01DX009 (ip), vehicle: other); 117 % of control (dose: 8.0 mg/kg/injection, schedule: Q01DX009 (ip), vehicle: other); 154 % of control (dose: 50.0 mg/kg/injection, schedule: Q01DX009 (ip), vehicle: other). Besides, under “dose: 100.0 mg/kg/injection, schedule: Q01DX009 (ip), vehicle: other”, the T/C was 164 % of control.
For the compound `CCOC(=O)CCC(C)(C#N)C(C#N)C(=O)OCC` (stereo unspecified), the T/C (dose: 100.0 mg/kg/injection, schedule: Q01DX009 (ip), vehicle: saline sonified) was 97 % of control; the T/C (dose: 100.0 mg/kg/injection, schedule: Q04DX003 (ip), vehicle: saline sonified) was 108 % of control; the T/C (dose: 200.0 mg/kg/injection, schedule: Q01DX009 (ip), vehicle: saline sonified) is 110 % of control; the T/C (dose: 200.0 mg/kg/injection, schedule: Q04DX003 (ip), vehicle: saline sonified) is 97 % of control; the T/C (dose: 400.0 mg/kg/injection, schedule: Q01DX009 (ip), vehicle: saline sonified) is 100 % of control; the T/C (dose: 400.0 mg/kg/injection, schedule: Q04DX003 (ip), vehicle: saline sonified) was 98 % of control.
For the compound `C[n+]1c2ccccc2cc2ccc(N=[N+]=[N-])cc21`, the T/C was 101 % of control (dose: 6.25 mg/kg/injection, schedule: Q01DX009 (ip), vehicle: saline); 101 % of control (dose: 6.25 mg/kg/injection, schedule: Q04DX003 (ip), vehicle: saline); 97 % of control (dose: 12.5 mg/kg/injection, schedule: Q01DX001 (ip), vehicle: saline); 98 % of control (dose: 12.5 mg/kg/injection, schedule: Q01DX009 (ip), vehicle: saline); 100 % of control (dose: 12.5 mg/kg/injection, schedule: Q04DX003 (ip), vehicle: saline); 97 % of control (dose: 25.0 mg/kg/injection, schedule: Q01DX001 (ip), vehicle: saline). Further, the T/C was 98 % of control (dose: 25.0 mg/kg/injection, schedule: Q01DX009 (ip), vehicle: saline); 111 % of control (dose: 25.0 mg/kg/injection, schedule: Q04DX003 (ip), vehicle: saline); 104 % of control (dose: 35.0 mg/kg/injection, schedule: Q01DX009 (ip), vehicle: saline).
Consider `S=c1nc(-c2ccccc2)c(-c2ccccc2)n[nH]1`, for which the T/C reads like this: (dose: 100.0 mg/kg/injection, schedule: Q04DX003 (ip), vehicle: saline) 100 % of control; (dose: 200.0 mg/kg/injection, schedule: Q04DX003 (ip), vehicle: saline) 98 % of control; (dose: 400.0 mg/kg/injection, schedule: Q04DX003 (ip), vehicle: saline) 98 % of control.
As to `Cc1ccc(N=NNc2ccc(C)cc2)cc1`, the T/C is, setting by setting: under setting [4], 96 % of control; under setting [5], 97 % of control; (dose: 75.0 mg/kg/injection, schedule: Q04DX003 (ip), vehicle: Klucel (hydroxypropylcellulose) (HPC)) 100 % of control; (dose: 100.0 mg/kg/injection, schedule: Q01DX009 (ip), vehicle: Klucel (hydroxypropylcellulose) (HPC)) 97 % of control; (dose: 150.0 mg/kg/injection, schedule: Q04DX003 (ip), vehicle: Klucel (hydroxypropylcellulose) (HPC)) 100 % of control; (dose: 300.0 mg/kg/injection, schedule: Q04DX003 (ip), vehicle: Klucel (hydroxypropylcellulose) (HPC)) 100 % of control.
As to `CCOC(=O)C(=O)Cc1ccccc1[N+](=O)[O-]`, the T/C is 96 % of control (dose: 100.0 mg/kg/injection, schedule: Q01DX001 (ip), vehicle: Klucel (hydroxypropylcellulose) (HPC)); 102 % of control (dose: 200.0 mg/kg/injection, schedule: Q01DX001 (ip), vehicle: Klucel (hydroxypropylcellulose) (HPC)); 95 % of control (dose: 400.0 mg/kg/injection, schedule: Q01DX001 (ip), vehicle: Klucel (hydroxypropylcellulose) (HPC)).
Regarding `O=C(OCCCl)c1ccco1`, the T/C is 102 % of control (dose: 100.0 mg/kg/injection, schedule: Q01DX001 (ip), vehicle: saline); 102 % of control (dose: 200.0 mg/kg/injection, schedule: Q01DX001 (ip), vehicle: saline); 107 % of control (dose: 400.0 mg/kg/injection, schedule: Q01DX001 (ip), vehicle: saline).
Consider `O=C(O)c1ccc(CCc2ccc(Cl)c(S(=O)(=O)F)c2)cc1`, for which the T/C reads like this: under setting [1], 94 % of control; (dose: 200.0 mg/kg/injection, schedule: Q01DX001 (ip), vehicle: saline with Tween-80) 92 % of control; (dose: 400.0 mg/kg/injection, schedule: Q01DX001 (ip), vehicle: saline with Tween-80) 91 % of control.
With `CCC(/C=N/N=C(N)N)=N\N=C(N)N`, the T/C by setting is: (dose: 15.0 mg/kg/injection, schedule: Q01DX Z (ip), vehicle: saline) 97 % of control; (dose: 30.0 mg/kg/injection, schedule: Q01DX Z (ip), vehicle: saline) 103 % of control; (dose: 30.0 mg/kg/injection, schedule: Q01DX Z (oral), vehicle: saline) 102 % of control; (dose: 60.0 mg/kg/injection, schedule: Q01DX Z (ip), vehicle: saline) 103 % of control and 115 % of control; (dose: 60.0 mg/kg/injection, schedule: Q01DX Z (oral), vehicle: saline) 101 % of control; (dose: 120.0 mg/kg/injection, schedule: Q01DX Z (ip), vehicle: saline) 108 % of control. Also, the T/C was 97 % of control and 106 % of control (dose: 120.0 mg/kg/injection, schedule: Q01DX Z (oral), vehicle: saline); 102 % of control and 104 % of control (dose: 240.0 mg/kg/injection, schedule: Q01DX Z (oral), vehicle: saline); 111 % of control (dose: 480.0 mg/kg/injection, schedule: Q01DX Z (oral), vehicle: saline).
`c1cn[nH]c1`: the T/C by setting is: (dose: 50.0 mg/kg/injection, schedule: Q01DX001 (ip), vehicle: carboxymethylcellulose (CMC)) 96 % of control; (dose: 100.0 mg/kg/injection, schedule: Q01DX001 (ip), vehicle: carboxymethylcellulose (CMC)) 100 % of control; (dose: 200.0 mg/kg/injection, schedule: Q01DX001 (ip), vehicle: carboxymethylcellulose (CMC)) 96 % of control.
For the compound `CCOC(=O)C(COC)C(C(=O)CC)C(=O)OCC` (stereo unspecified), the T/C (dose: 100.0 mg/kg/injection, schedule: Q01DX001 (ip), vehicle: other) was 102 % of control; the T/C (dose: 200.0 mg/kg/injection, schedule: Q01DX001 (ip), vehicle: other) is 89 % of control; the T/C (dose: 400.0 mg/kg/injection, schedule: Q01DX001 (ip), vehicle: other) is 96 % of control.
As to `C=CCNC(=S)Nc1c(C)cc(C)cc1C`, the T/C is, setting by setting: (dose: 12.5 mg/kg/injection, schedule: Q01DX009 (ip), vehicle: Klucel (hydroxypropylcellulose) (HPC)) 102 % of control; under setting [4], 97 % of control; under setting [5], 103 % of control.
